# Test results: US9403798B2, “Triazinone compound and T-type calcium channel inhibitor” (NISSAN CHEMICAL INDUSTRIES, LTD., priority 2012, dated 2016)
# Molecular target: T1, Human T-type calcium channel (Cav 3.2) (Homo sapiens, UniProt O95180)
# T1 construct: Edward Perez-Reyes, University of Virginia, USA; host or cells: HEK293
# Test: Calcium Influx Inhibition Assay
# Type: cell-based
# Settings: Human T-type calcium channel (Cav 3.2) expressing HEK293 cells, FLIPR Calcium 4 fluorescence
# Description: 1. Calcium Influx Inhibition Assay
# Human T-type calcium channel (Cav 3.2) expressing HEK293 cells were obtained from Prof. Edward Perez-Reyes, University of Virginia, USA. The calcium-sensitive fluorescent dye used was FLIPR Calcium 4 Assay Kit (Molecular Devices). To a black 96-well plate with a clear bottom coated with type I collagen, the human T-type calcium channel (Cav 3.2) expressing HEK293 cells were seeded and cultured overnight, and the culture medium was removed. A solution of the calcium-sensitive fluorescent dye was added, and the plate was incubated at 37° C. in an atmosphere of 5% carbon dioxide for 30 minutes. To the plate, a diluted solution of a compound was added, and the whole was further incubated at 37° C. in an atmosphere of 5% carbon dioxide for 30 minutes. While fluorescence was continuously analyzed from the bottom with a FlexStation 3 (Molecular Devices), a calcium solution was added. […] From the rise in the fluorescence from the base line, the inhibition percentage was calculated. The logarithms of compound concentrations were plotted with respect to the inhibition activities to give an IC50 value.
# T1 sequence (O95180 whole entry): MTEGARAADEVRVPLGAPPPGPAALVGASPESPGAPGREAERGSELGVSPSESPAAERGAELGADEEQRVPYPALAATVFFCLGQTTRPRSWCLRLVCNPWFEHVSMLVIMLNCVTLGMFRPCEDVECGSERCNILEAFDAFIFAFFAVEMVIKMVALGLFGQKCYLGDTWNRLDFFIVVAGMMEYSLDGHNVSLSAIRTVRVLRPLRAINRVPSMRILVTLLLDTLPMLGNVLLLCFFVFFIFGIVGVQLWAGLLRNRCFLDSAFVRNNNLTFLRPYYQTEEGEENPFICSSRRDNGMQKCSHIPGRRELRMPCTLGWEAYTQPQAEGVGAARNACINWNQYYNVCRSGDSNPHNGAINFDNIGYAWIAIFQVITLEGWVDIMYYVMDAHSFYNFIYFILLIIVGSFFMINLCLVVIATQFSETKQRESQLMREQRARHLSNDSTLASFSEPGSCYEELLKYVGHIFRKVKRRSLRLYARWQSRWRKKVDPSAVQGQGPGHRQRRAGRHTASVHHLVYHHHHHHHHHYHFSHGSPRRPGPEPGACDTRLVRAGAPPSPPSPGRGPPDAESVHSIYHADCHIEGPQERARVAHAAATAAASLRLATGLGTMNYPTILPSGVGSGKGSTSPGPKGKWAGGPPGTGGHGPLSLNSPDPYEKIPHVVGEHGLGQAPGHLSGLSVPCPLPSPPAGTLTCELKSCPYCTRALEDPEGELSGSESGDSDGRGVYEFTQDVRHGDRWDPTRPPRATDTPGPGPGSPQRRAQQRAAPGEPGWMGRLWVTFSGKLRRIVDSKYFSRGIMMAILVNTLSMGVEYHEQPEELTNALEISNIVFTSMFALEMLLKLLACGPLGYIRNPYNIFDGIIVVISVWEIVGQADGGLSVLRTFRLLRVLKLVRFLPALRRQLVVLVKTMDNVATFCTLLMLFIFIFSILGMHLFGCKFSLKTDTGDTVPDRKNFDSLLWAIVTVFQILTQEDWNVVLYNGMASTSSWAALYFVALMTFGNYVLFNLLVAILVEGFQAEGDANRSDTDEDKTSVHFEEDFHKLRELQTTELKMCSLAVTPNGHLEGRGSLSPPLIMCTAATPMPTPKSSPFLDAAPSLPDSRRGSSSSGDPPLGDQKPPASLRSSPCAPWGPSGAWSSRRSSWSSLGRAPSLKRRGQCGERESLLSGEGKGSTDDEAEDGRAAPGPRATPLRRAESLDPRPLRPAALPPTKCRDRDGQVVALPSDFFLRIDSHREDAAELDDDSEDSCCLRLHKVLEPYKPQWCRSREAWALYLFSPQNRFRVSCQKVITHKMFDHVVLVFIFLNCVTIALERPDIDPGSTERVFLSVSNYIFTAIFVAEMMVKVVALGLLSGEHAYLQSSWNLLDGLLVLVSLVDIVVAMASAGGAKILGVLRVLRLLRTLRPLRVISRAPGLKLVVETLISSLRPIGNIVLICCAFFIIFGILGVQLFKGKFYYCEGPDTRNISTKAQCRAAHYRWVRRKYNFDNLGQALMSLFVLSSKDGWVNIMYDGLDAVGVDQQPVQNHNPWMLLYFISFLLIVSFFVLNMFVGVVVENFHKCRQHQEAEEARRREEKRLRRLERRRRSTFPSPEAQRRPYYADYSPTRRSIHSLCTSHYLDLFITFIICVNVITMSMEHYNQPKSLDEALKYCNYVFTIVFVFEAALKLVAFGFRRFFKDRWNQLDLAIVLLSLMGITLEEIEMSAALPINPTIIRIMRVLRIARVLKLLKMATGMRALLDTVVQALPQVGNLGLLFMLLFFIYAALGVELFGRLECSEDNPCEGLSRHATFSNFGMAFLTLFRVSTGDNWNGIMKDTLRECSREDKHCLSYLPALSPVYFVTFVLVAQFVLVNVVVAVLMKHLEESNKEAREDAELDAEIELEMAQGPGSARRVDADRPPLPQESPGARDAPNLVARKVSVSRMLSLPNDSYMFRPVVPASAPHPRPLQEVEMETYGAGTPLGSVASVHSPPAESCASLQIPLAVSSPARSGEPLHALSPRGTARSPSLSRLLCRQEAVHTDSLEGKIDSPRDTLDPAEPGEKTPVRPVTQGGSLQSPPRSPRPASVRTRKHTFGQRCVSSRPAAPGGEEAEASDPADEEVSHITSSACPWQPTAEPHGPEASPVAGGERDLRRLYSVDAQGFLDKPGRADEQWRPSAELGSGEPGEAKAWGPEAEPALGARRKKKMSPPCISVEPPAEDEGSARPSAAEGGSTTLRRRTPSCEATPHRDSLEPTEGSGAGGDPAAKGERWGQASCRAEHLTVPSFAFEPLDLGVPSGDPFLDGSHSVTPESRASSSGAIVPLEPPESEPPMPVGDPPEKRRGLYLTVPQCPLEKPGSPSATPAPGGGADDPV
row,Structure (SMILES),IC50 [µM]
1,CN(C)Cc1nc(N2CCN(c3ccc(F)cc3)CC2)nc(=O)n1Cc1ccc(C(F)(F)F)s1 [compound 462],0.61
2,O=c1nc(NC2CCC(O)(c3ccc(F)cc3)C2O)ncn1Cc1ccc(Cl)cc1 (stereo not shown) [compound 465],0.28
3,O=c1nc(N2CC=C(c3ccc(F)cc3)CC2)ncn1Cc1ccc(OCC(F)(F)F)cc1 [compound 468],0.068
4,CC(=O)OC1CN(c2ncn(Cc3ccc(C(F)(F)F)s3)c(=O)n2)CC=C1c1ccc(F)cc1 (stereo not shown) [compound 476],0.061
5,O=c1nc(N2CC=C(c3ccc(F)cc3)CC2)ncn1Cc1ccc(C2CC2)s1 [compound 479],0.066
6,Cc1nc(N2CCC(c3ccc(F)cc3)C(CO)(CO)C2)nc(=O)n1Cc1ccc(C(F)(F)F)s1 (stereo not shown) [compound 485],0.41
7,Cc1nc(N2CCC(n3cc(Br)cn3)CC2)nc(=O)n1Cc1ccc(C(F)(F)F)s1 [compound 489],0.51

# More lines, in order of falling IC50, values ahead:
row,IC50 [µM],Structure (SMILES)
1,0.5,Cc1nc(N2CCN(CC(=O)C34CC5CC(CC(C5)C3)C4)CC2)nc(=O)n1Cc1ccc(C(F)(F)F)s1 [compound 487]
2,0.47,CN(C)C1CN(c2ncn(Cc3ccc(C(F)(F)F)s3)c(=O)n2)CC=C1c1ccc(F)cc1 (stereo not shown) [compound 481]
3,0.41,Cc1nc(N2CC=C(c3ccc(F)cc3)C3(COCOC3)C2)nc(=O)n1Cc1ccc(C(F)(F)F)s1 [compound 486]
4,0.24,O=c1nc(N2C=CC(c3ccc(F)cc3)=CC2)ncn1Cc1ccc(C(F)(F)F)s1 [compound 484]
5,0.039,COC1CN(c2ncn(Cc3ccc(C(F)(F)F)s3)c(=O)n2)CC=C1c1ccc(F)cc1 (stereo not shown) [compound 475]
6,0.0037,Cc1cc(C2=CCN(c3nc(C)n(Cc4cnc(C(F)(F)F)s4)c(=O)n3)C[C@@H]2O)cs1 [compound 493]
